The text below walks through data of article PMC4891385 (Clinical Drug Investigation, 2016).

One data set concerns the target T1, OCT2 (Homo sapiens, UniProt O15244).
T1 sequence (O15244 1-555): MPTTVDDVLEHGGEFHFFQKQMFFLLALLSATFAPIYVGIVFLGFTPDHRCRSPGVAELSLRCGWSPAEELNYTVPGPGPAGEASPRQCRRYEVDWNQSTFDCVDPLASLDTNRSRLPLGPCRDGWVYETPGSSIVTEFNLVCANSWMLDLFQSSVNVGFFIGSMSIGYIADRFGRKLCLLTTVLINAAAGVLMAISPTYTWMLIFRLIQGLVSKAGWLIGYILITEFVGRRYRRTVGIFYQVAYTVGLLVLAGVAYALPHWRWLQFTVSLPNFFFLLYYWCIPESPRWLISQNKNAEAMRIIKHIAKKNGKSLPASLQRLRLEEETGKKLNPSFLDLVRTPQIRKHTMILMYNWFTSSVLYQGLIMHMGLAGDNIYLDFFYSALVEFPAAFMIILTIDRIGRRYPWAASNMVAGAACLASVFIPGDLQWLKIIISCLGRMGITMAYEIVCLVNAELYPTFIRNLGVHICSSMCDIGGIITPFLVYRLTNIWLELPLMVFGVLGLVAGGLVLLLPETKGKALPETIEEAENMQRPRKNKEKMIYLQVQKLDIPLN
In words: [14C]-lesinurad uptake, substrate test, hOCT2 MDCK-II cells. It is filed as in vitro ADME.

In a further data set the target is T2, OATP1B1 (Homo sapiens, UniProt Q9Y6L6).
T2 sequence (Q9Y6L6 1-691): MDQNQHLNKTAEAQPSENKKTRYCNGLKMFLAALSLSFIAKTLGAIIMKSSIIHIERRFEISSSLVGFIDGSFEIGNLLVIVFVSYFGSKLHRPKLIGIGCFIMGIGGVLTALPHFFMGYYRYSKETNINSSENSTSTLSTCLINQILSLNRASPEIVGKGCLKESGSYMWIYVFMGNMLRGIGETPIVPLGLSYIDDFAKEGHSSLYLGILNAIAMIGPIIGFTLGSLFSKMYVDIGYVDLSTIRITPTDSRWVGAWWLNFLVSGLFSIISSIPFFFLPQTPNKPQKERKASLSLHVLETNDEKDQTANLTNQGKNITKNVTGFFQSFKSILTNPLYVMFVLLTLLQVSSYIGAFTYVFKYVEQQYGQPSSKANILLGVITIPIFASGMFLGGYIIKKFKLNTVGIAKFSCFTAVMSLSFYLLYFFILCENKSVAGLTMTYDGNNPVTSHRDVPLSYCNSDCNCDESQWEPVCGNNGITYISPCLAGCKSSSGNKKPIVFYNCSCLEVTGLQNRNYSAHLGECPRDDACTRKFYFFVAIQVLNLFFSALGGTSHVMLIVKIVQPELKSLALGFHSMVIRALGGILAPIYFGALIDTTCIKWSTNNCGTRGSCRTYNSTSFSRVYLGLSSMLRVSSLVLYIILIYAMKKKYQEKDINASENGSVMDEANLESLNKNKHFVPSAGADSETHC
In words: [14C]-lesinurad uptake, substrate test, hOATP1B1 MDCK-II cells. In kind it is in vitro ADME.

The target in a further data set is T3, OATP1B3 (Homo sapiens, UniProt Q9NPD5).
T3 sequence (Q9NPD5 1-702): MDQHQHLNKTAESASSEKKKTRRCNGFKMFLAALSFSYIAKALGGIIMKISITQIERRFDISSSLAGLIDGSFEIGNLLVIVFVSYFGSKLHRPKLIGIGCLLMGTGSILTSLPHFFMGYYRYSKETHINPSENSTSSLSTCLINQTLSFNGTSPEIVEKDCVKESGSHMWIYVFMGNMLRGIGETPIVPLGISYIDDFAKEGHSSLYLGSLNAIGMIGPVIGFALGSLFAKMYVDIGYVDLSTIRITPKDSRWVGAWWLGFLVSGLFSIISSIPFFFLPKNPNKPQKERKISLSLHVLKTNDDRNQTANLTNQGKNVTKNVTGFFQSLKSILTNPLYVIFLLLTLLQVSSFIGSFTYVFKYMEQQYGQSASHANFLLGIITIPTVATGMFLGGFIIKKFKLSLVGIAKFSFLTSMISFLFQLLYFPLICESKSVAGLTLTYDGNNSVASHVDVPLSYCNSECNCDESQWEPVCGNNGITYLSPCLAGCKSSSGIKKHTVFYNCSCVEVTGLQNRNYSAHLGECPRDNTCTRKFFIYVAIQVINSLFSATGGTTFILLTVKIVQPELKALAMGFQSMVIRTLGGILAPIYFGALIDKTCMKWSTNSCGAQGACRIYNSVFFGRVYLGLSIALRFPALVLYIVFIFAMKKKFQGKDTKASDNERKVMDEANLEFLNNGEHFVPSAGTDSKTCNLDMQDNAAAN
In words: [14C]-lesinurad uptake, substrate test, hOATP1B3 MDCK-II cells. It is filed as in vitro ADME.

In the next data set the target is T4, BCRP (Homo sapiens, UniProt Q9UNQ0).
T4 sequence (Q9UNQ0 1-655): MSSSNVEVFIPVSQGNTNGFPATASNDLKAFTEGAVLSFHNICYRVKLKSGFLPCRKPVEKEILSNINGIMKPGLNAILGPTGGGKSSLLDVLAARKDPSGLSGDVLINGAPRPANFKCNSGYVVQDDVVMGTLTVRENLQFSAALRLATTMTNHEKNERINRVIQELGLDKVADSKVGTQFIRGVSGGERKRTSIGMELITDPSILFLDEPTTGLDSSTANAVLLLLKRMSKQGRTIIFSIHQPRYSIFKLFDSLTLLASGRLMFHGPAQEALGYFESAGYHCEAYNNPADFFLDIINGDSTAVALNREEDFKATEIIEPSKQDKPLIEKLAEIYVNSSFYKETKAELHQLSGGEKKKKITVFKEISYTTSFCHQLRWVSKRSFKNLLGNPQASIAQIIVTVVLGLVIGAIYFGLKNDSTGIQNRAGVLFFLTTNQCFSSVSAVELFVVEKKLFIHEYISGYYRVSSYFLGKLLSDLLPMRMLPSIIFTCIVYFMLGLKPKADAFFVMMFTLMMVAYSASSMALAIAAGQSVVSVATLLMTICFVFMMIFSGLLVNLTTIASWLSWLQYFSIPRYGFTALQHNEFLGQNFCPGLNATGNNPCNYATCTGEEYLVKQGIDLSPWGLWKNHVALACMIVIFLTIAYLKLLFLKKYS
In words: [14C]-lesinurad substrate test, BCRP in Caco-2 cells. It is filed as in vitro ADME.

The next data set deals with P-gp (Homo sapiens, UniProt P08183). Briefly: [14C]-lesinurad substrate test, MDCK-MDR1 cells. In kind it is in vitro ADME.
P-gp, sequence (P08183 whole entry): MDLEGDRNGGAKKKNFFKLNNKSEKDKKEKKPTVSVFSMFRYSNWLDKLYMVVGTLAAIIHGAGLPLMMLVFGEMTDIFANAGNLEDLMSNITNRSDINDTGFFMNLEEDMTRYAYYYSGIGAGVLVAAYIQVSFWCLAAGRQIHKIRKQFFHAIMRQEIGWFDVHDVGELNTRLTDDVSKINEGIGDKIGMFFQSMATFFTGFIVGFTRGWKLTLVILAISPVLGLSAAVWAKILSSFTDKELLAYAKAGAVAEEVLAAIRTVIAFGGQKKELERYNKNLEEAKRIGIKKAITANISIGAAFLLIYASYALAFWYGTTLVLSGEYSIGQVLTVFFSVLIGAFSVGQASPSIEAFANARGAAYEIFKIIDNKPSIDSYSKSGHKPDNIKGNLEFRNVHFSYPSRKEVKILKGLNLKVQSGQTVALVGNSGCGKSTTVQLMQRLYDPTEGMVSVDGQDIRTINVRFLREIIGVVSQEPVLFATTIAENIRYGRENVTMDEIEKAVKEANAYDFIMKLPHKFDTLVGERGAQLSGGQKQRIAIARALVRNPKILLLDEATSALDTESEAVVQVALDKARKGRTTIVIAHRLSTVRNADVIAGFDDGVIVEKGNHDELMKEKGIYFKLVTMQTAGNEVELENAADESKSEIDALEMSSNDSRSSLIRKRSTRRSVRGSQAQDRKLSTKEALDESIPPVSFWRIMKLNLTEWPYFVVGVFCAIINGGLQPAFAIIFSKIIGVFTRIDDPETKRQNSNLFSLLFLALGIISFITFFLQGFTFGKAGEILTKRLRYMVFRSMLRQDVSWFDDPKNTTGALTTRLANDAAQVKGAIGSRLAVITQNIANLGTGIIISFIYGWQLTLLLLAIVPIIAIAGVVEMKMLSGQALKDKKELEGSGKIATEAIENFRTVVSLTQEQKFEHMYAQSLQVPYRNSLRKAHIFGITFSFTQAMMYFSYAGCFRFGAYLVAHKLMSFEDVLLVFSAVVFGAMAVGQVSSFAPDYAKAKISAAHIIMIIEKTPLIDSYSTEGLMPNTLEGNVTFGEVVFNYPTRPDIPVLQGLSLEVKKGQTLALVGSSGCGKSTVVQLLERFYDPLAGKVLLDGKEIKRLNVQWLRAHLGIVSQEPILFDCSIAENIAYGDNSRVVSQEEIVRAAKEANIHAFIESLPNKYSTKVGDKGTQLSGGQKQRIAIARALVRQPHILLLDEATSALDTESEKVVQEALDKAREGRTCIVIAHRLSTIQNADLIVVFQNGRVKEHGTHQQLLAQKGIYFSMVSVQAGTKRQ
The conditions of data set [1]: no reference given; cited from earlier work.

The structures appear in SMILES notation.

As for `O=C(O)CSc1nnc(Br)n1-c1ccc(C2CC2)c2ccccc12` [lesinurad], the Lesinurad as substrate entry at OCT2 was “not a substrate”; on OATP1B1, “weak substrate”; on OATP1B3 it was “not a substrate”; on BCRP, “minor substrate”; at P-gp, “not a substrate”. Besides, the “increase in lesinurad uptake in transfected versus non-transfected cells” value on OATP1B1 (lesinurad 10 µM) turned out to be 2.25 fold. Moreover, in data set [1], the “accumulation during multiple once-daily dosing” value is “does not accumulate”.
